The results in this text go back to patent publication EP1555271A1, “Peptides useful for diagnosis and therapy of TRP-2+ and/or TRP-1+ tumors” (Deutsches Krebsforschungszentrum Stiftung des öffentlichen …, priority 2004, dated 2005).

Ends that are not written are not given here.

The target in the assay is HLA-DRB1*0301 (Homo sapiens, UniProt P01903+P01911, A100K/A102G/A103R/A169T/F55Y/I96L/K41T/L162R/M171V/P40S/Q125H/Q178H/Q39Y/R42S/S66N/T106N/T262R/W38E/Y61H). The experiment in a line: HLA-DR competitive binding assay on T2.DR3 cells (biotinylated TT829-843 reporter peptide, Europium sandwich immunoassay). Conditions: dose necessary to reduce TT reporter peptide binding to 50%, 10 µM TT829-843 reporter, 180 min.

As usually defined, the IC50 is the point on the concentration scale where inhibition reaches its midpoint. The low end stands for inhibition by little substance, the high end for a need for much substance. In turn, “HLLCLERDLQRLIGN [TRP-2223-237, HLLCLERDLQRLIGN]” yielded a half-maximal inhibitory concentration (IC50) of 7.5 µM.
